Calls of active or inactive are those of the source.
Key:
[1] = P. falciparum 3D7-ScDHODH growth inhibitors, dose response, SYBR Green, dry powder samples (AID 1159570); type: functional, cell-based;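 further: parasite growth measured after 72 hours of compound exposure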
[2] = P. falciparum ATP4 D1247Y mutant growth inhibitors, dose response, NITD609-resistant line, SYBR Green, dry powder (AID 1159571); type: functional, cell-based;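 further: parasites synchronized at ring stage by sorbitol before testing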
[3] = HepG2 cell cytotoxicity, dose response, cytotoxicity control, plate reader, dry powder samples (AID 1159569); type: functional, cell-based;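 further: inhibitor potency with signal falling toward the positive control level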
[4] = P. falciparum Dd2 growth inhibitors, dose response, SYBR Green, cherry-picked samples (AID 1159567); type: functional, cell-based
[5] = P. falciparum Dd2 growth inhibitors, dose response, SYBR Green, dry powder samples (AID 1159566); type: functional, cell-based;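 further: potency for growth inhibition with lower SYBR green DNA signal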
[6] = microbe, parasite or virus in culture; type: functional; conditions: Mycobacterium tuberculosis
[7] = M. tuberculosis growth inhibition, HTS (AID 449762); type: functional
[8] = molecular target: Sphingosine 1-phosphate receptor 2 (Homo sapiens, UniProt O95136); test: Dose Response Cell Based Assay for Agonists of the S1P2 Receptor. [Related pubchem assays: 729, 736, 843 ]; type: functional
[9] = molecular target: T1, Sentrin-specific protease 6 (Homo sapiens, UniProt Q9GZR1); type: functional;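 further: Luminescence-based dose-response confirmatory assay of SENP6 inhibition, following up an ultra-high-throughput screen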
T1 sequence (Q9GZR1 whole entry): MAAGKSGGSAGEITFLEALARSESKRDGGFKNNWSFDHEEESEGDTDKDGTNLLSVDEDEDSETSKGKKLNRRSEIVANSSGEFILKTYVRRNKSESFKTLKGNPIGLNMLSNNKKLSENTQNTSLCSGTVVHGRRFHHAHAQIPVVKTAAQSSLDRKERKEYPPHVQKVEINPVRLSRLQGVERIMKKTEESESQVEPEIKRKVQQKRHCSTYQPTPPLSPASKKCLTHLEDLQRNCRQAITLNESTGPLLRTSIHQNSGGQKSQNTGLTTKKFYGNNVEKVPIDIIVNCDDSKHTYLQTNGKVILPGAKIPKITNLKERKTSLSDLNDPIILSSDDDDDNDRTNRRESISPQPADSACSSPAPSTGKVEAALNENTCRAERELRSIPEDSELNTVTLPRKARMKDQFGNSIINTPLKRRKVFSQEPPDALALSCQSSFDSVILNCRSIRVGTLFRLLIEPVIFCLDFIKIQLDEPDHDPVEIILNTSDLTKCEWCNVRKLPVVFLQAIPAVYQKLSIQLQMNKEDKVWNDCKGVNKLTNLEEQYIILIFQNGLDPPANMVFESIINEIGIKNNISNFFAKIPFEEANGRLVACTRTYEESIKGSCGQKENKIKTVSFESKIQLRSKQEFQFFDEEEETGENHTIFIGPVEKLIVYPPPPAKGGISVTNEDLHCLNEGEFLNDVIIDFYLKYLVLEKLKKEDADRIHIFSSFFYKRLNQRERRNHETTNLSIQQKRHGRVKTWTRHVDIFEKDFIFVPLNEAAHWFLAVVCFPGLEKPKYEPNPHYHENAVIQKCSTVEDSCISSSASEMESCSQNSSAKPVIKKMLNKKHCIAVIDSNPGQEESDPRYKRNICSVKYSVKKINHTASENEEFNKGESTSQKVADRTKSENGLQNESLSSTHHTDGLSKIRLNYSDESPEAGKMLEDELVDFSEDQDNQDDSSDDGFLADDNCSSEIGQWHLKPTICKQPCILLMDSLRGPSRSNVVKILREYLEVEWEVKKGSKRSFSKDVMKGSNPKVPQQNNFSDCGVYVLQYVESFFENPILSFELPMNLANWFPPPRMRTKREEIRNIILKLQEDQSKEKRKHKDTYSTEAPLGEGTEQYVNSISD

[10] = Luminescence-based cell-based high throughput dose response assay to identify activators of the DAF-12 from the parasite S. stercoralis (ssDAF-12).; type: functional
[11] = molecular target: T2, Sentrin-specific protease 8 (Homo sapiens, UniProt Q96LD8); type: functional;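 further: luminescence read-out of SENP8 inhibition, dose-response confirmation following an ultra-high-throughput screen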
T2 sequence (Q96LD8 whole entry): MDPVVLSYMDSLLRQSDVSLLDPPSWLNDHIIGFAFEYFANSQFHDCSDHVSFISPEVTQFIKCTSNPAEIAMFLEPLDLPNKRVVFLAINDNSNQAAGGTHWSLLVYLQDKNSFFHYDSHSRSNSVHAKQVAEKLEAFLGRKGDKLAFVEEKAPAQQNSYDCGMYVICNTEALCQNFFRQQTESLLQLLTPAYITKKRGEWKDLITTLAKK

[12] = molecular target: T3, Caspase-3 (Homo sapiens, UniProt P42574); type: functional;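 further: Dose-response selectivity test against caspase-3 for candidate inhibitors of sentrin-specific proteases (SENPs)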
T3 sequence (P42574 whole entry): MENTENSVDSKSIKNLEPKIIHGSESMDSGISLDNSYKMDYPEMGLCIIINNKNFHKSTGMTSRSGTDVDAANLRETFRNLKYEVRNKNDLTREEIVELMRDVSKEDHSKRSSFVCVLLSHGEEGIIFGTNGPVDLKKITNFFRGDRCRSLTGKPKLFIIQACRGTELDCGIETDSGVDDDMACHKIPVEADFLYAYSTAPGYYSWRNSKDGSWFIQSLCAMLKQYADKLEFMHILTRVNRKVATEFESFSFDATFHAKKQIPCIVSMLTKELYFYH

[13] = molecular target: T4, Oxysterols receptor LXR-beta (Homo sapiens, UniProt P55055); test: LXR agonists, Gal4 luciferase reporter, dose response, counter-screen for ssDAF-12 agonist project, cell-based, luminescence, HEK293, S. stercoralis campaign (AID 720737); type: functional; conditions: read-out: IC50 (the source's name)
T4 sequence (P55055 whole entry): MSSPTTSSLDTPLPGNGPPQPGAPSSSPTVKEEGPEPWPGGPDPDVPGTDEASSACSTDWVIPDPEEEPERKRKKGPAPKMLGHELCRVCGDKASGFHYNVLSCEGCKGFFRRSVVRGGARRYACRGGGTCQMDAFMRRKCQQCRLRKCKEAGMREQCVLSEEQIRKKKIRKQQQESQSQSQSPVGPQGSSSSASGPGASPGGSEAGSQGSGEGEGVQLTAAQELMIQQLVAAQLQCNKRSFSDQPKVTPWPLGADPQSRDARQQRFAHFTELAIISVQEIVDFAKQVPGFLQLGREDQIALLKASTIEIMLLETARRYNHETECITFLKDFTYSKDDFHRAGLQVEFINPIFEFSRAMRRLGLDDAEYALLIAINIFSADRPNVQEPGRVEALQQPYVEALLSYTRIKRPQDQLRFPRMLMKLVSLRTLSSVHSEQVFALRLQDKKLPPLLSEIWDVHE

[14] = molecular target: T5, Sentrin-specific protease 7 (Homo sapiens, UniProt Q9BQF6); type: functional;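 further: Luminescence-based dose-response confirmation of ultra-high-throughput screening hits, measuring inhibition of SENP7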
T5 sequence (Q9BQF6 whole entry): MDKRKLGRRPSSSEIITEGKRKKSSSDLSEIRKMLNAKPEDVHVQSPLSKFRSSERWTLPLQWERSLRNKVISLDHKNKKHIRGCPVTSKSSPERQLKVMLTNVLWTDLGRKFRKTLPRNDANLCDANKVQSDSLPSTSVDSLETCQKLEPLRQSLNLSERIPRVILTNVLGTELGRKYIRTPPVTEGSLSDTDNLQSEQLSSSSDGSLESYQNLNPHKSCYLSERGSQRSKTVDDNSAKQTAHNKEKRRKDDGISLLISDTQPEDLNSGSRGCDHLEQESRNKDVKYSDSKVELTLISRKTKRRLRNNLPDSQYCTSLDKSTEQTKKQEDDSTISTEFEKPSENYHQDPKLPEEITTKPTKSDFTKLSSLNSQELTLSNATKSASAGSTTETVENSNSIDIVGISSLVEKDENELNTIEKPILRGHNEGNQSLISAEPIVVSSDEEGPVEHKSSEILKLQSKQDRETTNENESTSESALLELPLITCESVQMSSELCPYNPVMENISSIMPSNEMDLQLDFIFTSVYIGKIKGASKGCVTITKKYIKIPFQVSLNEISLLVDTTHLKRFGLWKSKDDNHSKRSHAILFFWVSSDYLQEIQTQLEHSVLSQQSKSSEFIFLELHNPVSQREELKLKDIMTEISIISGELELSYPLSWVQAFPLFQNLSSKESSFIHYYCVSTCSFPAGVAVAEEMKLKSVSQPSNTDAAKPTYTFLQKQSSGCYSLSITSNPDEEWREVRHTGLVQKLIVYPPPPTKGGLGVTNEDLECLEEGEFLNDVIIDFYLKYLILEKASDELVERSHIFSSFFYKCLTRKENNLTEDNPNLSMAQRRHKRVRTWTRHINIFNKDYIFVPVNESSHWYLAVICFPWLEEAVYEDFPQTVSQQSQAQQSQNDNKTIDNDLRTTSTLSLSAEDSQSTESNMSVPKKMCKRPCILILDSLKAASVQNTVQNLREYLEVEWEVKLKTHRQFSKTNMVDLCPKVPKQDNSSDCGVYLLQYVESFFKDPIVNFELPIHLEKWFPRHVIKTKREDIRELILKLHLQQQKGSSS

[15] = molecular target: Paired box protein Pax-8 (Homo sapiens, UniProt Q06710); test: inhibitors of PAX8-driven TPO luciferase reporter, dose response, RMG-I cells, cherry-pick (AID 687027); type: functional, cell-based;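 further: luciferase reporter driven by Pax8 target thyroperoxidase promoter measured by SteadyGlo luminescence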
[16] = tested on: HEK293; test: inhibitors of LMP1-driven NF-kB reporter, dose response, cell-based, HEK293, luciferase, cherry-pick (AID 588343); type: functional; conditions: Homo sapiens
[17] = HeLa 4N DNA content increase, dose response, cell-based, IC50 (AID 1117351); type: functional
[18] = HeLa 2N DNA content increase, dose response, cell-based, IC50 (AID 1117349); type: functional
[19] = molecular target: Voltage-gated inwardly rectifying potassium channel KCNH2 (Homo sapiens, UniProt Q12809); conditions: Potency;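 further: confirmatory quantitative high-throughput screen measuring inhibition of hERG channel activity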
[20] = molecular target: Prothrombin (Homo sapiens, UniProt P00734); test: Thrombin 1536 HTS Dose Response Confirmation. [Related pubchem assays: 1046 (Thrombin 1536 HTS; hits were confirmed in this assay)]; type: functional
[21] = molecular target: T6, Heat shock factor protein 1 (Mus musculus, UniProt P38532); test: HSF1 potentiators in luciferase reporter cells, confirmation, cell-based, NIH3T3, luminescence, dose retest (AID 435004); type: functional;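 further: stress induced by proteasome inhibitor MG132 added 30 min after compound; luciferase reporter driven by HSF1 response element in NIH3T3 cells; actives raise luminescence as potentiators of the MG132 stress response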
T6 sequence (P38532 whole entry): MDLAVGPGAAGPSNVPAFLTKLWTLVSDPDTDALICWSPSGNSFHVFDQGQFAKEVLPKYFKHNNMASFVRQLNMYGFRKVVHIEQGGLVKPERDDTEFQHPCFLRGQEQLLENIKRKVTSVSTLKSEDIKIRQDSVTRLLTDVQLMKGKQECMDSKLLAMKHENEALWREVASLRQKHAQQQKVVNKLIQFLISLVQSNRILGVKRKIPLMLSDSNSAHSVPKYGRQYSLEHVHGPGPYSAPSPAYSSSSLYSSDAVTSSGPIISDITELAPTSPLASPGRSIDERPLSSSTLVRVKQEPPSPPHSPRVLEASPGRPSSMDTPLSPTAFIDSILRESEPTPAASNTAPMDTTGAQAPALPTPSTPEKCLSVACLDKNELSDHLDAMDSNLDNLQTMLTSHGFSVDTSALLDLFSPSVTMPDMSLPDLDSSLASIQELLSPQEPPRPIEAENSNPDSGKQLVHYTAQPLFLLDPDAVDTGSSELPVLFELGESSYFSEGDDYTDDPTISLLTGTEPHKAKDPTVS

[22] = molecular target: Induced myeloid leukemia cell differentiation protein Mcl-1 (Homo sapiens, UniProt Q07820); type: functional
[23] = molecular target: Ephrin type-A receptor 4 (Mus musculus, UniProt Q03137); test: inhibitors of EphA4 binding to KYL peptide, primary screen, biochemical, colorimetric, mouse EphA4 (AID 689); type: functional
[24] = THP-1 cell cytotoxicity, dose response, cytotoxicity control for non-replicating M. tuberculosis project (AID 489025); type: functional
[25] = HEp-2 cell cytotoxicity, dose response, cytotoxicity control for RSV inhibitor project, HTS (AID 2410); type: functional; conditions: human respiratory syncytial virus

Chain of Paired box protein Pax-8 (Q06710 whole entry): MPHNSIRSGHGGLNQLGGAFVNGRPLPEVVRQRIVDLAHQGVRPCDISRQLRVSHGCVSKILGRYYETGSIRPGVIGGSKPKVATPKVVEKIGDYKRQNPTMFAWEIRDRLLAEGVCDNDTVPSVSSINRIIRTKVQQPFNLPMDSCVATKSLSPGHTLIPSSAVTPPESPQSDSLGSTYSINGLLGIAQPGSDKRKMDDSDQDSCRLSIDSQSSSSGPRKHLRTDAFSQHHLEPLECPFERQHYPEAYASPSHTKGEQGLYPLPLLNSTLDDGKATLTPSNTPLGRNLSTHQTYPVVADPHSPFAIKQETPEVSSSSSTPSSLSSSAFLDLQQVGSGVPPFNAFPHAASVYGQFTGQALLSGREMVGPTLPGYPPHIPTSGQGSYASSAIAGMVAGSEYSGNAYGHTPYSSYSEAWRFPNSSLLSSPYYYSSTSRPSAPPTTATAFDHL
Chain of Voltage-gated inwardly rectifying potassium channel KCNH2 (Q12809 whole entry): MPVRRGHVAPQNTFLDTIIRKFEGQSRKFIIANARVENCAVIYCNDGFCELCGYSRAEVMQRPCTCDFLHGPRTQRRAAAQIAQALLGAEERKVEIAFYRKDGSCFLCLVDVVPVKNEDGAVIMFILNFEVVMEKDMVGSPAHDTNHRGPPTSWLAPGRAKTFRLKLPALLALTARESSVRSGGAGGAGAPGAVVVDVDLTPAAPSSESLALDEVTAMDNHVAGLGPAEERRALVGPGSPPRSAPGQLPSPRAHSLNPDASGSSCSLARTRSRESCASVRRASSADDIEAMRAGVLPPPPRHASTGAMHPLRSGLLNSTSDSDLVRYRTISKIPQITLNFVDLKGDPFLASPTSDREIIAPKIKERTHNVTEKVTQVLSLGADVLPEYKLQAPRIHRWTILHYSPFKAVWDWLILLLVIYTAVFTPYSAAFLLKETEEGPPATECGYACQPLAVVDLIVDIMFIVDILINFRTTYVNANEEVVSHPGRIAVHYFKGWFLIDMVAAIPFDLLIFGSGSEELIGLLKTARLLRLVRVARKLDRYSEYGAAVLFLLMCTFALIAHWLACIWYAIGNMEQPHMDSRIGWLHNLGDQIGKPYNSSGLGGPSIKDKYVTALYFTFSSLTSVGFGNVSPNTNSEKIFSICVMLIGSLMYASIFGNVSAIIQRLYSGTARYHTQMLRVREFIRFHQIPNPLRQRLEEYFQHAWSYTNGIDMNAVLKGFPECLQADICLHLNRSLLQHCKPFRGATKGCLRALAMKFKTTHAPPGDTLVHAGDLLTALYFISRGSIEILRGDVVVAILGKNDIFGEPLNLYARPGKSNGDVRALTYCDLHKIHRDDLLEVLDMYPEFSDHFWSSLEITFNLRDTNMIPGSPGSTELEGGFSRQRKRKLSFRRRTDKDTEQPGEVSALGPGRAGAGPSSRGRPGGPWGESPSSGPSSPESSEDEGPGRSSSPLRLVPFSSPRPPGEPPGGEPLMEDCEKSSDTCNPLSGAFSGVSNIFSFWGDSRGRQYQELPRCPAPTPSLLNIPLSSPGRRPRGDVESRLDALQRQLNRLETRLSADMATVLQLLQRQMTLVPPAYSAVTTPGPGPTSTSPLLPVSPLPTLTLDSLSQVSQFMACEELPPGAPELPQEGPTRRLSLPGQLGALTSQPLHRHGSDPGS
Chain of Ephrin type-A receptor 4 (Q03137 whole entry): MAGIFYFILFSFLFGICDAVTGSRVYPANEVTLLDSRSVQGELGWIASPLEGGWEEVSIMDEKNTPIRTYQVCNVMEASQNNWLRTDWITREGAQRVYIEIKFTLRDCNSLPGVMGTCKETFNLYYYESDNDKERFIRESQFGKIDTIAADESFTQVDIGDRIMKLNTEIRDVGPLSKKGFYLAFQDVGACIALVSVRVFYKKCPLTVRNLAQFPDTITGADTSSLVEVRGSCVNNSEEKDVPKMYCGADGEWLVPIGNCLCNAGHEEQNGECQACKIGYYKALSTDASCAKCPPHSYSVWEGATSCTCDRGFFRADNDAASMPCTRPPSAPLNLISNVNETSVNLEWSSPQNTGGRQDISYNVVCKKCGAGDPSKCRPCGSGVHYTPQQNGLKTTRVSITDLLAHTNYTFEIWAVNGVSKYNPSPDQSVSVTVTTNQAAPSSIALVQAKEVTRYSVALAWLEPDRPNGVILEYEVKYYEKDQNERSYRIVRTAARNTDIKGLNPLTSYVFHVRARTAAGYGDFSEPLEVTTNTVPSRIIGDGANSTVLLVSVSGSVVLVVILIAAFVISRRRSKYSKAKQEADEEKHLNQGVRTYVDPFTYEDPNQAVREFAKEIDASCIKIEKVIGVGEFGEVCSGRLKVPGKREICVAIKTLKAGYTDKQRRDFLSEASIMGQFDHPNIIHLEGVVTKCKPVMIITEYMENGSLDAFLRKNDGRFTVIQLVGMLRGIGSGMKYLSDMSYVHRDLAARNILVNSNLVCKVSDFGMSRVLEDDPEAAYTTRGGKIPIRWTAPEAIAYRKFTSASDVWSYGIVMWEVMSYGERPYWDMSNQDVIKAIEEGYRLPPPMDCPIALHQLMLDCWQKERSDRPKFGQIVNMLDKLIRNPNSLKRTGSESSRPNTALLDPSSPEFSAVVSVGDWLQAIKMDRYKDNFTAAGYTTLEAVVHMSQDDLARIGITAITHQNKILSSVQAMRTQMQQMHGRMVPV
Chain of Induced myeloid leukemia cell differentiation protein Mcl-1 (Q07820 whole entry): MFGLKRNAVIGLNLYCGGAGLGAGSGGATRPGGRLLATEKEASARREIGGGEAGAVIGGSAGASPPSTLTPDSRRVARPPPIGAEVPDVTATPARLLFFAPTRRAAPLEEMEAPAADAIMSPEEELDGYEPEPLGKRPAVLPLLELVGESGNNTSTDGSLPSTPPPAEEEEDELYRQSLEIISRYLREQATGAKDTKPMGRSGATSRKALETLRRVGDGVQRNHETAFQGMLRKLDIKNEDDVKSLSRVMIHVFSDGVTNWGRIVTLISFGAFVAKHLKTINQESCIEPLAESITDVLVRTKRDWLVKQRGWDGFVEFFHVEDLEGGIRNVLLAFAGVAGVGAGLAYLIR
Chain of Sphingosine 1-phosphate receptor 2 (O95136 whole entry): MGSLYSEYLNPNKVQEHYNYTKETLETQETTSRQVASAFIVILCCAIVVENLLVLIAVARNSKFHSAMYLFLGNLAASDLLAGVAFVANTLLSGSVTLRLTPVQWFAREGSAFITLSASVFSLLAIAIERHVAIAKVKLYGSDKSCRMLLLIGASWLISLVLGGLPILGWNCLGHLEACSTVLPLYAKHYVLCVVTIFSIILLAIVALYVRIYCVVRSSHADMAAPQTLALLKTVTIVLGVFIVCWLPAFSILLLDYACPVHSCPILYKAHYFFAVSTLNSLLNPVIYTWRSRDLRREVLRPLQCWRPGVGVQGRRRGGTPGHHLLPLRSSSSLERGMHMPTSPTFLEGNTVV

Question: For `Cc1ccc(OC(=O)N(C)C[C@H]2OCc3ccccc3-c3c(n(C)c4ccccc34)C(=O)N([C@H](C)CO)C[C@@H]2C)cc1`, which AC50 [1] is on record?
Answer: 1.72 µM (active)

Question: And the AC50 [2]?
Answer: 1.96 µM (active)

Question: What about the AC50 [3] of the same compound?
Answer: 22.9 µM (active)

Question: And the AC50 [4]?
Answer: 2.53 µM (active)

Question: And the AC50 [5]?
Answer: 1.71 µM (active)

Question: Which CC50 [6] does the source give for `COc1ccc(-c2c(-c3cc(OC)cc(OC)c3)n(C)c3ccc(-c4cc[nH]n4)cc23)cc1` here?
Answer: > 40 µM (active)

Question: What about the IC50 [7] of the same compound?
Answer: > 100 µM (active)

Question: Which EC50 [8] does the source give for `CCOC(=O)c1cc2ccc(OC)c(OC)c2c(=O)s1` here?
Answer: > 50 µM (not active)

Question: Which results are given for `Cc1ccc(NC(=O)c2oc3ccccc3c2C)nc1`?
Answer: IC50 [9]: 85.3 µM (active); IC50 [10]: > 67.5 µM (inactive); IC50 [11]: > 100 µM (inactive); IC50 [12]: 25.8 µM (active); EC50 [13]: > 67.5 µM (inactive); IC50 [14]: 7.35 µM (active)

Question: With `C[C@H](CO)N1C[C@H](C)[C@H](CN(C)S(=O)(=O)c2cccc(F)c2)OCc2ccccc2-c2c(n(C)c3ccccc23)C1=O` as the compound, how does the AC50 [1] read?
Answer: 1.6 µM (active)

Question: What about the AC50 [15] of the same compound?
Answer: 11.3 µM (active)

Question: And the AC50 [2]?
Answer: 0.62 µM (active)

Question: What about the AC50 [3] of the same compound?
Answer: 31.5 µM (active)

Question: What about the AC50 [4] of the same compound?
Answer: 2.07 µM (active)

Question: And the AC50 [5]?
Answer: 0.722 µM (active)

Question: With `N[C@@H](Cc1ccc(N(CCCl)CCCl)cc1)C(=O)O` as the compound, how does the AC50 [16] read?
Answer: 10.3 µM (active)

Question: And the IC50 [17]?
Answer: 5.36 µM (inactive)

Question: And the IC50 [18]?
Answer: 2.26 µM (active)

Question: And the AC50 [19]?
Answer: 15.8 µM (inconclusive)

Question: With `Cn1c(SCC(=O)c2ccc3c(c2)NC(=O)CO3)nc2ccccc21` as the compound, how does the IC50 [20] read?
Answer: > 50 µM (not active)

Question: With `CCN(CCO)c1nc(SC)nc2c1sc1nc(-c3ccco3)c3c(c12)CCC3` as the compound, how does the EC50 [21] read?
Answer: 66.5 µM (active)

Question: And the IC50 [22]?
Answer: 1.85 µM (active)

Question: What about the IC50 [23] of the same compound?
Answer: 24.1 µM (active)

Question: What does the source list for `CCOC(=O)c1ccc(/N=C2\SC(C(=O)Nc3ccc(C(=O)O)cc3)CC(=O)N2Cc2cccs2)cc1` (configuration not stated)?
Answer: CC50 [24]: > 40 µM (active); IC50 [7]: > 100 µM (active); CC50 [25]: 13 µM (active)

Question: For `COc1ccccc1C(=O)n1nc(-c2ccco2)nc1SC`, which IC50 [20] is on record?
Answer: 0.001 µM (active)

— ChEMBL document CHEMBL1201862, “PubChem BioAssay data set” (2004)
